Test results taken from BindingDB's records for doi:10.1016/j.bmcl.2019.04.027 (Gilead Sciences, 2019).
pEC50: −log10 of the molar value.

How the values were obtained:
[1] = Inhibition of NS5A in HCV genotype 2b MD2b-1 infected in human HuH7 replicon cells assessed as reduction in viral replication after 3 days by luciferase reporter gene assay
[2] = Inhibition of NS5A in HCV genotype 1a H77 infected in human HuH7 replicon cells assessed as reduction in viral replication after 3 days by luciferase reporter gene assay
[3] = Inhibition of NS5A in HCV genotype 4a ED43 infected in human HuH7 transient chimeric replicon cells assessed as reduction in viral replication after 3 days by luciferase reporter gene assay
[4] = Inhibition of NS5A L31M mutant in HCV genotype 2a J6 (M31) infected in human HuH7 replicon cells assessed as reduction in viral replication after 3 days by luciferase reporter gene assay
[5] = Inhibition of NS5A L31M mutant in HCV genotype 2a JFH1 (M31) infected in human HuH7 replicon cells assessed as reduction in viral replication after 3 days by luciferase reporter gene assay
[6] = Inhibition of NS5A in HCV genotype 1b Con1 infected in human HuH7 replicon cells assessed as reduction in viral replication after 3 days by luciferase reporter gene assay
[7] = Inhibition of NS5A in HCV genotype 3a S52 infected in human HuH7 transient chimeric replicon cells assessed as reduction in viral replication after 3 days by luciferase reporter gene assay
[8] = Inhibition of NS5A in HCV genotype 4a ED43 infected in human HuH7 replicon cells assessed as reduction in viral replication after 3 days by luciferase reporter gene assay
[9] = Inhibition of NS5A in HCV genotype 2a JFH1 infected in human HuH7 replicon cells assessed as reduction in viral replication after 3 days by luciferase reporter gene assay
[10] = Inhibition of NS5A L31M mutant in patient derived HCV genotype 2b MD2b-1 infected in human HuH7 replicon cells assessed as reduction in viral replication after 3 days by luciferase reporter gene assay
[11] = Inhibition of NS5A L31M mutant in HCV genotype 2a JFH1 infected in human HuH7 replicon cells assessed as reduction in viral replication after 3 days by luciferase reporter gene assay
[12] = Inhibition of NS5A in HCV genotype 2a JFH1 (L31) infected in human HuH7 replicon cells assessed as reduction in viral replication after 3 days by luciferase reporter gene assay
[13] = Inhibition of NS5A in HCV genotype 3a S52 infected in human HuH7 replicon cells assessed as reduction in viral replication after 3 days by luciferase reporter gene assay
[14] = Inhibition of NS5A in HCV genotype 6a HK6 infected in human HuH7 replicon cells assessed as reduction in viral replication after 3 days by luciferase reporter gene assay
[15] = Inhibition of NS5A in HCV genotype 5a SA13 infected in human HuH7 replicon cells assessed as reduction in viral replication after 3 days by luciferase reporter gene assay
[16] = Inhibition of NS5A in HCV genotype 6e D88 infected in human HuH7 replicon cells assessed as reduction in viral replication after 3 days by luciferase reporter gene assay
[17] = Inhibition of NS5A in HCV genotype 2a J6 infected in human HuH7 replicon cells assessed as reduction in viral replication after 3 days by luciferase reporter gene assay

| Compound | pEC50 [1] | pEC50 [2] | pEC50 [3] | pEC50 [4] | pEC50 [5] | pEC50 [6] | pEC50 [7] | pEC50 [8] | pEC50 [9] | pEC50 [10] | pEC50 [11] | pEC50 [12] | pEC50 [13] | pEC50 [14] | pEC50 [15] | pEC50 [16] | pEC50 [17] |
| --- | --- | --- | --- | --- | --- | --- | --- | --- | --- | --- | --- | --- | --- | --- | --- | --- | --- |
| COC(=O)N[C@H](C(=O)N1CCC[C@H]1c1ncc(-c2ccc3c(c2)COc2cc4c(ccc5nc([C@@H]6C[C@H](C)CN6C(=O)[C@@H](NC(=O)OC)C(C)C)[nH]c54)cc2-3)[nH]1)C(C)C | 9.88 | 10.96 | 10.96 | 9.35 | 11.15 | 10.74 | 10.74 |  |  |  |  |  |  |  |  |  |  |
| COC[C@H]1C[C@@H](c2ncc(-c3ccc4c(c3)COc3cc5c(ccc6nc([C@@H]7CCCN7C(=O)[C@@H](NC(=O)OC)C(C)C)[nH]c65)cc3-4)[nH]2)N(C(=O)[C@H](NC(=O)OC)c2ccccc2)C1 | 11.05 | 10.96 |  | 10.89 |  | 10.72 | 10.77 | 11.15 | 11.22 |  |  |  |  |  |  |  |  |
| COC(=O)N[C@H](C(=O)N1CCC[C@H]1c1ncc(-c2cc3c4c(c2)OCc2cc(-c5cnc([C@@H]6CCCN6C(=O)[C@H](NC(=O)OC)c6ccccc6)[nH]5)cc(c2-4)OC3)[nH]1)C1CCOCC1 |  | 9.49 |  | 9.55 |  | 9.50 |  |  |  | 10.24 | 9.49 | 10.66 |  |  |  |  |  |
| COC[C@H]1C[C@@H](c2ncc(-c3ccc4c(c3)COc3cc5c(ccc6nc([C@@H]7C[C@H]8C[C@@H]8N7C(=O)[C@@H](NC(=O)OC)C(C)C)[nH]c65)cc3-4)[nH]2)N(C(=O)[C@H](NC(=O)OC)c2ccccc2)C1 | 10.34 | 11.00 |  | 9.95 |  | 10.96 | 10.74 | 11.05 | 11.22 |  |  |  |  |  |  |  |  |
| COC[C@H]1C[C@@H](c2ncc(-c3ccc4c(c3)COc3cc5c(ccc6nc([C@@H]7C[C@@H]8C[C@H]8N7C(=O)[C@@H](NC(=O)OC)C(C)C)[nH]c65)cc3-4)[nH]2)N(C(=O)[C@H](NC(=O)OC)c2ccccc2)C1 | 10.55 | 10.89 |  | 10.68 |  | 10.70 | 10.60 | 11.05 | 11.15 |  |  |  |  |  |  |  |  |
| COC(=O)N[C@H](C(=O)N1CCC[C@H]1c1ncc(-c2ccc3c(c2)COc2cc4c(ccc5nc([C@@H]6CC[C@H](C)N6C(=O)[C@@H](NC(=O)OC)C(C)C)[nH]c54)cc2-3)[nH]1)C(C)C |  | 10.96 |  | 9.63 | 10.72 | 10.74 |  | 10.70 |  |  |  |  | 10.11 |  |  |  |  |
| COC(=O)N[C@@H](C(=O)N1CCC[C@H]1c1ncc(-c2cc3c4c(c2)OCc2cc(-c5cnc([C@@H]6CCCN6C(=O)[C@H](NC(=O)OC)c6ccccc6)[nH]5)cc(c2-4)OC3)[nH]1)c1ccccc1 |  | 10.03 |  | 9.62 |  | 10.32 |  |  |  | 10.66 | 9.84 | 11.15 |  |  |  |  |  |
| COC[C@H]1C[C@@H](c2ncc(-c3cc4c5c(c3)OCc3cc(-c6cnc([C@@H]7CC[C@H](C)N7C(=O)[C@@H](NC(=O)OC)C(C)C)[nH]6)cc(c3-5)OC4)[nH]2)N(C(=O)[C@H](NC(=O)OC)c2ccccc2)C1 | 9.54 | 10.80 |  |  |  | 10.80 | 9.92 | 10.89 |  |  |  |  |  | 10.66 | 10.09 | 9.96 | 9.32 |
| COC(=O)N[C@H](C(=O)N1CCC[C@H]1c1ncc(-c2cc3c4c(c2)OCc2cc(-c5cnc([C@@H]6CCCN6C(=O)[C@H](NC(=O)OC)c6ccccc6)[nH]5)cc(c2-4)OC3)[nH]1)C(C)C |  | 10.30 |  | 8.74 |  | 10.51 |  |  |  | 10.12 | 9.22 | 11.40 |  |  |  |  |  |
| COC[C@H]1C[C@@H](c2ncc(-c3ccc4c(c3)COc3cc5c(ccc6nc([C@@H]7C[C@H](COC)CN7C(=O)[C@@H](NC(=O)OC)C(C)C)[nH]c65)cc3-4)[nH]2)N(C(=O)[C@@H](NC(=O)OC)C(C)C)C1 | 9.74 | 10.62 | 10.44 | 10.21 | 11.00 | 10.47 | 9.69 |  |  |  |  |  |  |  |  |  |  |
| CCO[C@H]1C[C@@H](c2nc3ccc4cc5c(cc4c3[nH]2)OCc2cc(-c3cnc([C@@H]4CCCN4C(=O)[C@@H](NC(=O)OC)C(C)C)[nH]3)ccc2-5)N(C(=O)[C@@H](NC(=O)OC)C(C)C)C1 | 9.58 | 10.82 | 10.70 | 9.42 | 11.15 | 10.74 | 10.32 |  |  |  |  |  |  |  |  |  |  |
| COC(=O)N[C@H](C(=O)N1CCC[C@H]1c1ncc(-c2cc3c4c(c2)OCc2cc(-c5cnc([C@@H]6CCCN6C(=O)[C@@H](NC(=O)OC)C(C)C)[nH]5)cc(c2-4)OC3)[nH]1)C(C)C |  | 10.54 | 10.54 | 8.06 |  | 10.66 | 10.26 |  |  | 8.75 | 8.23 | 11.15 |  | 10.80 | 10.25 | 8.94 |  |
| COC(=O)N[C@H](C(=O)N1C[C@@H](C)C[C@H]1c1nc2ccc3cc4c(cc3c2[nH]1)OCc1cc(-c2cnc([C@@H]3C[C@H](C)CN3C(=O)[C@H](NC(=O)OC)c3ccccc3)[nH]2)ccc1-4)C(C)C | 10.57 | 10.48 |  | 10.35 |  | 10.52 | 10.30 | 10.20 | 10.74 |  |  |  |  |  |  |  |  |
| COC[C@H]1C[C@@H](c2nc3ccc4cc5c(cc4c3[nH]2)OCc2cc(-c3cnc([C@@H]4CC[C@H](C)N4C(=O)[C@@H](NC(=O)OC)C(C)C)[nH]3)ccc2-5)N(C(=O)[C@@H](NC(=O)OC)C(C)C)C1 | 9.80 | 10.96 | 10.82 | 10.17 | 10.92 | 10.77 | 10.21 |  |  |  |  |  |  |  |  |  |  |
| COC[C@H]1C[C@@H](c2nc3ccc4cc5c(cc4c3[nH]2)OCc2cc(-c3cnc([C@@H]4C[C@H](C)CN4C(=O)[C@@H](NC(=O)OC)C(C)C)[nH]3)ccc2-5)N(C(=O)[C@@H](NC(=O)OC)C(C)C)C1 | 9.78 | 10.85 | 10.66 | 9.97 | 11.05 | 10.72 | 10.24 |  |  |  |  |  |  |  |  |  |  |
| COC(=O)N[C@H](C(=O)N1[C@@H](C)CC[C@H]1c1ncc(-c2ccc3c(c2)COc2cc4c(ccc5nc([C@@H]6CC[C@H](C)N6C(=O)[C@@H](NC(=O)OC)C(C)C)[nH]c54)cc2-3)[nH]1)C(C)C | 10.20 | 11.10 | 11.10 | 9.55 | 10.85 | 10.92 | 10.70 |  |  |  |  |  |  |  |  |  |  |
| COC[C@H]1C[C@@H](c2ncc(-c3ccc4c(c3)COc3cc5c(ccc6nc([C@@H]7C[C@H](C)CN7C(=O)[C@@H](NC(=O)OC)C(C)C)[nH]c65)cc3-4)[nH]2)N(C(=O)[C@H](NC(=O)OC)c2ccccc2)C1 | 10.82 | 10.89 |  | 10.85 |  | 10.77 | 10.60 | 10.96 | 11.22 |  |  |  |  |  |  |  |  |
